Results on 14 molecules are retold here after patent US8008487B2, “Substituted thieno[2,3-D]pyrimidines as fungicides” (priority 2004, dated 2011).

Type in all cases: in vivo
One test relates to Magnaporthe grisea. Put plainly: whole plant or invertebrate. As to conditions: Pyricularia oryzae, in Oryza sativa, foliar, 24 h, read-out: PYRIOR percent control of disease, 200 ppm on foliage, rice, one-day protectant test.
Another test has as its system Cochliobolus sativus. Put plainly: Spot Blotch of Wheat (COCHSA), whole-plant fungicide test. As to conditions: Bipolaris sorokiniana, 24 h, one-day protectant test, read-out: COCHSA percent control of disease; for pest or weed control at 200 ppm: foliar, 200 ppm on foliage. Summed up: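 Percent control is derived from disease severity relative to untreated inoculated plants, scored 4–28 days later. Spore inoculation followed foliar spraying by one day (protectant) or preceded it by two days (curative); plants kept humid 1-2 days before greenhouse. Spray dose was 200 ppm, occasionally 100, 75 or 8.3 ppm, in acetone/Triton X100 water.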

The next test concerns Septoria tritici. Description: Speckled Leaf Blotch of Wheat (SEPTTR), whole-plant fungicide test. As to conditions: Zymoseptoria tritici, 24 h, one-day protectant test, read-out: SEPTTR percent control of disease; for pest or weed control at 200 ppm: foliar, 200 ppm on foliage.
Test [1] concerns Puccinia recondita tritici. Description: Leaf Rust of Wheat (PUCCRT), whole-plant fungicide test. As to conditions: Puccinia recondita, foliar, 24 h, 200 ppm on foliage, one-day protectant test, read-out: PUCCRT percent control of disease.
Test [2] relates to Erysiphe graminis f. sp. tritici. Description: Powdery Mildew of Wheat (ERYSGT), whole-plant fungicide test. As to conditions: Blumeria graminis, 24 h, one-day protectant test, read-out: ERYSGT percent control of disease; for pest or weed control at 200 ppm: foliar, 200 ppm on foliage.
Another test concerns Leptosphaeria nodorum. Description: Glume Blotch of Wheat (LEPTNO), whole-plant fungicide test. As to conditions: Parastagonospora nodorum, foliar, 24 h, 200 ppm on foliage, one-day protectant test, read-out: LEPTNO percent control of disease.
In another test the test system is Phytophthora infestans. Put plainly: whole plant or invertebrate. As to conditions: Phytophthora infestans, in Solanum lycopersicum, foliar, 24 h, read-out: PHYTIN percent control of disease, 200 ppm on foliage, tomato, one-day protectant test.
The subject of another test is Colletotricum lagenarium. Put plainly: Cucumber Anthracnose (COLLLA), whole-plant fungicide test. As to conditions: Cucumis sativus, foliar, 24 h, 200 ppm on foliage, one-day protectant test, read-out: COLLLA percent control of disease.
Another test relates to Erysiphe cichoracaerum. Description: Cucumber Powdery Mildew (ERYSCI), whole-plant fungicide test. As to conditions: Erysiphe, foliar, 24 h, 200 ppm on foliage, one-day protectant test, read-out: ERYSCI percent control of disease.

On to `Clc1csc2ncnc(NC3Cc4ccccc4C3)c12` [Compound 9], for which the pest or weed control at 200 ppm with Magnaporthe grisea was in the range of 80 to 100%; in the test on Cochliobolus sativus it was 80 to 100%; in the test with Septoria tritici, 0 to 49%; in test [1], 80 to 100%; in test [2], 0 to 49%; in the test on Leptosphaeria nodorum it was 50 to 79%. In addition, the pest or weed control at 200 ppm is 80 to 100% with Phytophthora infestans, 0 to 49% in the test on Colletotricum lagenarium and 80 to 100% in the test with Erysiphe cichoracaerum.

For `CC(Nc1ncnc2scc(Cl)c12)c1ccc[nH]1` (stereo not drawn) [Compound 11], the pest or weed control at 200 ppm in the test on Magnaporthe grisea is 50 to 79%; in the test on Cochliobolus sativus, 0 to 49%; with Septoria tritici, 50 to 79%; in test [1], 50 to 79%; in [2], 0 to 49%; in the test with Leptosphaeria nodorum, 50 to 79%. In addition, the pest or weed control at 200 ppm with Phytophthora infestans, in the test with Colletotricum lagenarium and in the test with Erysiphe cichoracaerum was 0 to 49% in each case.

`CC(Nc1ncnc2scc(Cl)c12)c1ccn(C)c1` (stereo not drawn) [Compound 12]: the pest or weed control at 200 ppm is 80 to 100% in the test with Magnaporthe grisea; 0 to 49% with Cochliobolus sativus; 0 to 49% in the test on Septoria tritici; 50 to 79% in test [1]; 0 to 49% in test [2]; 50 to 79% in the test with Leptosphaeria nodorum. The pest or weed control at 200 ppm with Phytophthora infestans was 80 to 100%; in the test with Colletotricum lagenarium it was 0 to 49%; with Erysiphe cichoracaerum, 0 to 49%.

`CC(Nc1ncnc2scc(Cl)c12)c1cccn1C` (stereo not drawn) [Compound 13]: the pest or weed control at 200 ppm lay within 50 to 79% with Magnaporthe grisea; 0 to 49% in the test with Cochliobolus sativus; 0 to 49% with Septoria tritici; 0 to 49% in test [1]; 0 to 49% in test [2]; 0 to 49% with Leptosphaeria nodorum. Besides, the pest or weed control at 200 ppm in the test on Phytophthora infestans, in the test on Colletotricum lagenarium and with Erysiphe cichoracaerum was 0 to 49% throughout.

In the case of `COCc1ccc(C(C)Nc2ncnc3scc(Cl)c23)cc1` (stereo not drawn) [Compound 14], the pest or weed control at 200 ppm was in the range of 80 to 100% in the test on Magnaporthe grisea; 0 to 49% in the test on Cochliobolus sativus; 80 to 100% in the test on Septoria tritici; 80 to 100% in [1]; 80 to 100% in [2]; 80 to 100% in the test with Leptosphaeria nodorum. The pest or weed control at 200 ppm with Phytophthora infestans, in the test with Colletotricum lagenarium and in the test on Erysiphe cichoracaerum was 80 to 100% throughout.

As for `CC(Nc1ncnc2scc(Cl)c12)c1cc[nH]c1` (stereo not drawn) [Compound 15], the pest or weed control at 200 ppm in the test on Magnaporthe grisea lay within 50 to 79%; in the test on Cochliobolus sativus, 0 to 49%; with Septoria tritici, 0 to 49%; in test [1], 80 to 100%; in [2], 0 to 49%; in the test on Leptosphaeria nodorum, 0 to 49%. Moreover, the pest or weed control at 200 ppm with Phytophthora infestans, in the test with Colletotricum lagenarium and in the test with Erysiphe cichoracaerum was 0 to 49% each time.

As to `CC(Nc1ncnc2scc(Cl)c12)c1ccn(C(C)C)c1` (stereo not drawn) [Compound 16], the pest or weed control at 200 ppm with Magnaporthe grisea was 50 to 79%; in the test with Cochliobolus sativus, 50 to 79%; in the test with Septoria tritici, 0 to 49%; in test [1] it was 0 to 49%; in test [2] it was 0 to 49%; with Leptosphaeria nodorum it was 0 to 49%. Further, the pest or weed control at 200 ppm in the test on Phytophthora infestans, with Colletotricum lagenarium and in the test on Erysiphe cichoracaerum was 0 to 49% each time.

`Clc1csc2ncnc(C3Cc4ccccc4C3)c12` [Compound 17]: the pest or weed control at 200 ppm with Magnaporthe grisea lay within 0 to 49%; with Cochliobolus sativus, 50 to 79%; with Septoria tritici, 0 to 49%; in test [1] it was 0 to 49%; in [2], 0 to 49%; in the test on Leptosphaeria nodorum it was 0 to 49%. The pest or weed control at 200 ppm in the test on Phytophthora infestans, in the test on Colletotricum lagenarium and in the test with Erysiphe cichoracaerum was 0 to 49% each time.

Consider `CC(COc1ccc(C(F)(F)F)cn1)Nc1ncnc2scc(Cl)c12` (stereo not drawn) [Compound 18, 5-chloro-N-(1-methyl-2-{[5-(trifluoromethyl)pyridin-2-yl]oxy}ethyl)thieno [2,3-d]pyrimidin-4-amine], for which the pest or weed control at 200 ppm in the test on Magnaporthe grisea was in the range of 80 to 100%; with Cochliobolus sativus it was 0 to 49%; in the test on Septoria tritici it was 80 to 100%; in test [1], 80 to 100%; in test [2] it was 80 to 100%; in the test with Leptosphaeria nodorum, 80 to 100%. Further, the pest or weed control at 200 ppm in the test on Phytophthora infestans lay within 80 to 100%; in the test on Colletotricum lagenarium it was 0 to 49%; with Erysiphe cichoracaerum, 80 to 100%.

As to `CC(Nc1ncnc2scc(Cl)c12)c1ccc(C(F)(F)F)cn1` (stereo not drawn) [Compound 19], the pest or weed control at 200 ppm was in the range of 80 to 100% in the test with Magnaporthe grisea; 80 to 100% in the test on Cochliobolus sativus; 50 to 79% with Septoria tritici; 50 to 79% in test [1]; 50 to 79% in test [2]; 50 to 79% in the test with Leptosphaeria nodorum. In addition, the pest or weed control at 200 ppm in the test with Phytophthora infestans, with Colletotricum lagenarium and in the test with Erysiphe cichoracaerum was 0 to 49% throughout.

In the case of `CC(Nc1ncnc2scc(Cl)c12)c1ccc(OCl)nc1` (stereo not drawn) [Compound 29], the pest or weed control at 200 ppm with Magnaporthe grisea is 80 to 100%; in test [1], 80 to 100%; in the test on Leptosphaeria nodorum, 80 to 100%; with Phytophthora infestans, 80 to 100%; in the test with Colletotricum lagenarium it was 0 to 49%; with Erysiphe cichoracaerum, 80 to 100%. Moreover, the pest or weed control at 100 ppm in the test on Cochliobolus sativus (100 ppm (footnote a)) was in the range of 0 to 49%; in the test with Septoria tritici (100 ppm (footnote a)), 50 to 79%; in [2] (100 ppm (footnote a)), 80 to 100%.

Take `CC(C)c1ccc(C(C)Nc2ncnc3scc(Cl)c23)nc1` (stereo not drawn) [Compound 34]: the pest or weed control at 200 ppm was in the range of 80 to 100% in the test on Magnaporthe grisea; 0 to 49% in the test on Cochliobolus sativus; 50 to 79% in the test with Septoria tritici; 80 to 100% in [1]; 80 to 100% in test [2]; 80 to 100% with Leptosphaeria nodorum. Further, the figures for the pest or weed control at 200 ppm in the test on Phytophthora infestans, with Colletotricum lagenarium and in the test with Erysiphe cichoracaerum were 0 to 49%, 50 to 79% and 80 to 100%, respectively.

Take `CC(Nc1ncnc2scc(Cl)c12)c1ccc(OCc2ccccc2)cn1` (stereo not drawn) [Compound 35]: the pest or weed control at 200 ppm is 80 to 100% in the test with Magnaporthe grisea; 0 to 49% in the test on Cochliobolus sativus; 50 to 79% in the test with Septoria tritici; 80 to 100% in test [1]; 0 to 49% in [2]; 50 to 79% in the test with Leptosphaeria nodorum. For the same molecule, the figures for the pest or weed control at 200 ppm in the test with Phytophthora infestans, with Colletotricum lagenarium and with Erysiphe cichoracaerum were 50 to 79%, 80 to 100% and 50 to 79%, respectively.

For the molecule `COc1cnc(C(C)Nc2ncnc3scc(Cl)c23)nc1` (stereo not drawn) [Compound 36], the pest or weed control at 200 ppm in the test with Magnaporthe grisea is 80 to 100%; in the test on Cochliobolus sativus it was 0 to 49%; with Septoria tritici, 50 to 79%; in test [1] it was 80 to 100%; in test [2] it was 0 to 49%; in the test with Leptosphaeria nodorum, 0 to 49%. In addition, the pest or weed control at 200 ppm in the test on Phytophthora infestans was 80 to 100%; in the test on Colletotricum lagenarium it was 0 to 49%; in the test with Erysiphe cichoracaerum, 0 to 49%.
